Data as given in US20210024482A1, “Novel Group of STAT3 Pathway Inhibitors and Cancer Stem Cell Pathway Inhibitors” (Sumitomo Dainippon Pharma Oncology, Inc., priority 2007, published 2021).

What was measured:
[1] = test system: CD44^high CSCs; assay: Sphere assay with CD44high CSCs; type: cell-based; settings: spheres grown 72 hours before challenge, FIGS. 10A and 10B
Protocol: A reliable method of measuring the self-renewal capacity of cell population if the ability to be cultured as spheres in the absence of serum or attachment. CD44^high FaDu or Hoechst side population cancer stem cells were cultured in ultra low attachment plates in cancer stem cell media (DMEM/F12, B27 Neurobasal supplement, 20 ng/ml EGF, 10 ng/ml FGF, 4 μg/ml insulin, and 0.4% BSA) to allow spheres formation. Typically, sphere formation was evaluated by microscopy after 10-14 days in culture and spheres with >50 cells were scored.
One of the hallmarks cancer stem cells is their ability to self-renew. A reliable method of measuring the self-renewal capacity of cell populations is the ability to be cultured as spheres in the absence of serum or attachment. To compare the ability of compound 401 to other targeted and chemotherapeutic agents, FACS-isolated CD44^high CSCs were grown as spheres for 72 hours before being challenged with a panel of therapeutic agents. […] Tarceva, Sutent, and Gleevec were added at approximately three times their reported therapeutic concentrations.

[2] = test system: SW480 Hoechst SP cells; assay: MTT cell viability, SW480 Hoechst side population CSCs; type: cell-based; settings: for IC50: Homo sapiens, SW480 Hoechst SP, 48 h
Protocol: (§1) To identify and isolate side population (SP) and non-SP fractions, SW480 cells were removed from the culture dish with trypsin and EDTA, pelleted by centrifugation, washed with phosphate-buffered saline (PBS), and resuspended at 37° C. in Dulbecco's modified Eagle's medium (DMEM) containing 2% FBS and 1 mM HEPES. The cells were then labeled with Hoechst 33342 (Invitrogen) at a concentration of 5 μg/mL. The labeled cells were incubated for 120 minutes at 37° C., either alone or with 50 μM verapamil (Sigma-Aldrich, St. Louis). After staining, the cells were suspended in Hanks' balanced saline solution (HBSS; Invitrogen) containing 2% FBS and 1 mM HEPES, passed a through 40 μm mesh filter, and maintained at 4° C. until flow cytometry analysis. The Hoechst dye was excited at 350 nm, and its fluorescence was measured at two wavelengths using a 450 DF10 (450/20 nm band-pass filter) and a 675LP (675 nm long-pass edge filter) optical filter. The gating on forward and side scatter was not stringent, and only debris was excluded,
(§2) For 3-(4,5 dimethylthiazol-2-yl)-2,5-diphenyltetrazolium (MTT) (Sigma-Aldrich, St. Louis, Mo.) analysis, cells were plated in 96 well plates at 10,000 cells per well. 24 hours after plating, compound was added to cells at indicated doses. 22 hours following compound addition, MTT was added to each well (0.5 mg/ml, final concentration) and plates were incubated for an additional 2 hours at 37° C. Medium was then aspirated and the formazan product was solubilized in 100 μl of isopropyl alcohol. The absorbance of each well was measured at 570 nm using a microplate reader.
The IC50 of compound 401 against the Hoechst side population was accessed in MTT assays and was compared to the IC50 against the non-side population.
In addition, we tested the activities of several other compounds against cancer stem cells. Briefly, freshly isolated CSCs (SW480 Hoechst SP cells or CD44^high FaDu cells) were exposed to a dose range (30-0.117 μM) of compound for 48 h before examining cell viability by MTT assay. IC50s were estimated by plotting the percentage of surviving cells. As shown in Table 4 and Table 5, compounds of present invention can target cancer stem cells.

[3] = test system: FaDu cells; assay: MTT cell viability FaDu; type: cell-based; settings: Homo sapiens, Head and Neck, MTT 24 hours
Protocol: as §2
(§3) Cells plated in 96 well plates and treated with indicated compounds were subjected to MTT analysis at 24 hours following compound treatment to determine cell viability.

[4] = test system: CD44^high FaDu cells; assay: MTT cell viability, CD44high FaDu CSCs; type: cell-based; settings: Homo sapiens, 48 h
Protocol: CD44^high cells were isolated by FACS according to the methods described in Ponti et al, with slight modification. Briefly, after trypsinization and recovery of cells for 30 minutes at 37° C. in growth media, cells were pelleted at 400×g and were resuspended in PBS with 2% FBS and 1 mM EDTA at 1×10^6 cells/mL. Cells were then incubated on ice with a 1:100 dilution of CD44-FITC (BD Biosicences, San Diego, Calif.) for 15 minutes. Alternatively, CD24-PE (BD Bioscences, San Diego, Calif.) (1:100) was utilized for negative selection. After washing three times, cells were resuspended at 2×10^6/mL and passed through a […] mesh before sorting.
as §2
In addition, we tested the activities of several other compounds against cancer stem cells. […]

[5] = test system: CD44^low FaDu cells; assay: MTT cell viability, CD44low FaDu cells; type: cell-based; settings: Homo sapiens, 48 h
[6] = test system: SW480 non-side population (NSP) cells; assay: MTT cell viability, SW480 non-side population; type: cell-based; settings: Homo sapiens, 48 h
Protocol: as §1
For 3-(4,5 dimethylthiazol-2-yl)-2,5-diphenyltetrazolium (MTT) (Sigma-Aldrich, St. Louis, Mo.) analysis, cells were plated in 96 well plates at 10,000 cells per well. 24 hours after plating, compound was added to cells at indicated doses. […] The absorbance of each well was measured at 570 nm using a microplate reader. […]

[7] = test system: Paca2 cells; assay: MTT cell viability Paca2; type: cell-based; settings: PaCa-2; Paca2, Pancreas, MTT 24 hours
Protocol: as §2, §3

[8] = test system: Stat3; assay: Stat3 DNA binding assay (EMSA) with HeLa nuclear extracts; type: biochemical; settings: HeLa nuclear extract, FIG. 7A/7B
Protocol: Electrophoretic mobility shift assay (EMSA) was performed as described by the manufacturer (Li-Cor Biosciences, Lincoln, Nebr.). Briefly, nuclear extracts were made from HeLa cells using the NucBuster Protein Extraction Kit as described by the manufacturer (EMD Biosciences, San Diego, Calif.). 5 μg of nuclear extract was pre-incubated with the indicated dose of indicated compound for 30 minutes prior to a 15-minute incubation with the IR700-labeled consensus Stat3 oligonucleotide. Samples were then electrophoresed on a polyacrylamide gel and directly scanned using the Odyssey infrared imaging system (Li-Cor Biosciences). For the enzyme-linked immunosorbent assay (ELISA), 5 μg of nuclear extract was preincubated with indicated concentration of indicated compound for 30 minutes prior to the addition of biotinylated oligo (5′-Biotin-[…]-3′, SEQ ID NO. 1). Stat3-DNA complexes were then captured on streptavidin coated 96 well plates (Pierce, Rockford, Ill.). Bound complexes were then incubated with Stat3 polyclonal antibody (Santa Cruz Biotechnology, Santa Cruz, Calif.) followed by anti-rabbit HRP conjugated secondary antibody (GE Healthcare, Pittsburgh, Pa.). Bound antibody was then visualized by addition of TMB substrate (Pierce) and absorbance measured at 450 nm,
Nuclear extracts from HeLa cells, which contain constitutively activated Stat3 as detected by phoshporylation at the tyrosine 705 residue, were used to perform Stat3 EMSAs to monitor Stat3 DNA binding activity. Nuclear extracts were incubated with indicated compound prior to incubation with IR700-labeled Stat3 consensus oligonucleotide. Binding of Stat3 to the oligonucleotide was monitored by gel electrophoresis and detection using a LiCor Odyssey infrared scanner.

[9] = test system: SW480 cells; assay: Hoechst side population staining of SW480 cells; type: cell-based; settings: treatment before Hoechst staining, FIG. 8A
Protocol: as §1
To confirm that this side population is enriched with cancer stem cells, a control set of SW480 cells were first treated with Verapamil, an inhibitor of ABC transporters, before stained with Hoechst.

[10] = test system: Stat3; assay: Stat3-luciferase (Stat3-Luc) reporter assay, OSM-stimulated HeLa cells; type: cell-based; settings: FIG. 6
Protocol: HeLa Cells were co-transfected with Stat3-luciferase (Stat3-Luc) reporter vector (Panomics, Fremont, Calif.) and Renilla luciferase (Promega, Madison, Wis.) using Lipofectamine 2000 as described by the manufacturer (Invitrogen). Following transfection, cells were maintained in medium containing 0.5% FBS for 24 hours. Cells were then treated with the indicated compound for 30 minutes prior to the addition of 25 ng/ml oncostatin M (OSM) (R&D Systems, Minneapolis, Minn.) to the medium. 6 hours following OSM addition, cells were harvested and levels of firefly and renilla luciferase were measured using the Dual-Glo Luciferase Assay System as described by the manufacturer (Promega).
Compounds were tested for their ability to inhibit Stat3 transcription activation activity in cells using a Stat3-luciferase (Stat3-luc) reporter construct. Cells transfected with Stat3-luc were cultured in reduced serum medium prior to addition of indicated compound for 30 minutes. Cells were then stimulated with 25 ng/ml oncostatin M (OSM) for 6 hours followed by detection of Stat3-luc reporter activity. […] AG490, a known inhibitor of the Jak-Stat pathway, was included as a positive control for Stat3 inhibition.

SMILES: CC(=O)O[C@@]12CO[C@@H]1C[C@H](O)[C@@]1(C)C(=O)[C@H](O)C3=C(C)[C@@H](OC(=O)[C@H](O)[C@@H](NC(=O)OC(C)(C)C)c4ccccc4)C[C@@](O)([C@@H](OC(=O)c4ccccc4)[C@H]21)C3(C)C [docetaxel]
- prevention of sphere proliferation [1]: spheres were resistant

SMILES: C=C(OP(=O)(O)O)C1=CC2C(=O)c3ccccc3C(=O)C2O1 (stereo not drawn) [Compound 4011, phosphoric acid mono-[1-(4,9-dioxo-3a,4,9,9a-tetrahydro-naphtho[2,3-b]furan-2-yl)-vinyl] ester]
- IC50 [2]: 380 nM
- IC50 [3]: 353 nM
- IC50 [4]: 270 nM
- IC50 [5]: 420 nM
- IC50 [6]: 340 nM
- IC50 [7]: 446 nM

SMILES: CC(=O)c1cc2c(o1)C(=O)c1cc(F)ccc1C2=O [Compound 418, 2-Acetyl-7-Fluoro-naphtho[2,3-b]furan-4,9-dione]
- inhibition of Stat3 DNA binding activity [8]: can inhibit Stat3's DNA binding activity

SMILES: COc1cccc2c1C(=O)c1c(O)c3c(c(O)c1C2=O)C[C@@](O)(C(=O)CO)C[C@@H]3O[C@H]1C[C@H](N)[C@H](O)[C@H](C)O1 [Doxorubicin, reference compound]
- sensitivity of side population compared to non-side population ([2]; FIG. 8B): the side population is much more resistant than the non-side population
- prevention of sphere proliferation [1]: spheres were resistant

SMILES: CC(=O)c1cc2c(o1)C(=O)c1cc(Cl)ccc1C2=O [Compound 416, 2-Acetyl-7-Chloro-naphtho[2,3-b]furan-4,9-dione]
- inhibition of Stat3 DNA binding activity [8]: can inhibit Stat3's DNA binding activity

SMILES: COc1ccc(CCN(C)CCCC(C#N)(c2ccc(OC)c(OC)c2)C(C)C)cc1OC (stereo not drawn) [Verapamil]
- effect on Hoechst side population [9]: loss of the side population

SMILES: C=C(OP(=O)(OC)OC)C1=CC2C(=O)c3ccccc3C(=O)C2O1 (stereo not drawn) [Compound 4012, phosphoric acid 1-(4,9-dioxo-3a,4,9,9a-tetrahydro-naphtho[2,3-b]furan-2-yl)-vinyl ester dimethyl ester]
- IC50 [2]: 570 nM
- IC50 [3]: 1040 nM
- IC50 [4]: 1050 nM
- IC50 [5]: 760 nM
- IC50 [6]: 810 nM

SMILES: O=C(c1ccccc1)c1cc2cc3ccccc3cc2s1 [Compound 1001, reference compound]
- inhibition of OSM-stimulated Stat3 reporter activity [10]: did not inhibit OSM-stimulated Stat3 reporter activity even at a much higher concentration
